According to ChEMBL document CHEMBL1201862, “PubChem BioAssay data set” (2004):
Activity calls are given as the source filed them.

What was measured:
Assay type in all cases: functional
Vero = Vero cell cytotoxicity, cytotoxicity control for flavivirus capping enzyme inhibitors (AID 588742); settings: Chlorocebus sabaeus
[1] = Luminescence Cell-Based Dose Retest to Confirm Inhibitors of Cancer Stem Cells. [Related pubchem assays (depositor defined):AID2717, AID2721]; settings: Homo sapiens
[2] = target: T1, High affinity choline transporter 1 (Homo sapiens, UniProt Q9GZV3); assay: CHT inhibitors, dose response, cell-based, 10-point CRC, membrane potential dye (AID 588401);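 also: membrane potential dye fluorescence of choline-evoked depolarization via CHT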
T1 sequence (Q9GZV3 whole entry): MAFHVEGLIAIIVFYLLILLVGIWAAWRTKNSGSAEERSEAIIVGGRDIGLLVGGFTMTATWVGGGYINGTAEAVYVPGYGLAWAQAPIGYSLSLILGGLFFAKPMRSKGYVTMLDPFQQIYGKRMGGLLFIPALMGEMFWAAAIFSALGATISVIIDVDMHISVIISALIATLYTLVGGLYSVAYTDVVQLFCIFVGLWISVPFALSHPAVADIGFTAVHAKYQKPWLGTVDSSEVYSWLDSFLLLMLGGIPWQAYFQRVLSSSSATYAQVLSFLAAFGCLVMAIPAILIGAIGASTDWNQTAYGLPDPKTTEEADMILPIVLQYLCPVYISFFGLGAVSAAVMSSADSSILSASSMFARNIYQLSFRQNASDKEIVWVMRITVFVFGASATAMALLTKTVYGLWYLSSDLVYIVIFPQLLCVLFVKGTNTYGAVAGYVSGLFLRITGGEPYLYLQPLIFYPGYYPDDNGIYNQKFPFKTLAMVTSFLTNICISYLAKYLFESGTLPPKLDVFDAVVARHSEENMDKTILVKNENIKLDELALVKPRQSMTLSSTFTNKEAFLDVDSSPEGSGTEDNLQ

Genome polyprotein = Genome polyprotein (dengue virus type 2, UniProt P29990); assay: Dengue-2 NS5 methyltransferase inhibitors, primary screen, biochemical, confirmation dose response (AID 588689)
Sequence of Genome polyprotein (P29990 2492-3391 limits assumed): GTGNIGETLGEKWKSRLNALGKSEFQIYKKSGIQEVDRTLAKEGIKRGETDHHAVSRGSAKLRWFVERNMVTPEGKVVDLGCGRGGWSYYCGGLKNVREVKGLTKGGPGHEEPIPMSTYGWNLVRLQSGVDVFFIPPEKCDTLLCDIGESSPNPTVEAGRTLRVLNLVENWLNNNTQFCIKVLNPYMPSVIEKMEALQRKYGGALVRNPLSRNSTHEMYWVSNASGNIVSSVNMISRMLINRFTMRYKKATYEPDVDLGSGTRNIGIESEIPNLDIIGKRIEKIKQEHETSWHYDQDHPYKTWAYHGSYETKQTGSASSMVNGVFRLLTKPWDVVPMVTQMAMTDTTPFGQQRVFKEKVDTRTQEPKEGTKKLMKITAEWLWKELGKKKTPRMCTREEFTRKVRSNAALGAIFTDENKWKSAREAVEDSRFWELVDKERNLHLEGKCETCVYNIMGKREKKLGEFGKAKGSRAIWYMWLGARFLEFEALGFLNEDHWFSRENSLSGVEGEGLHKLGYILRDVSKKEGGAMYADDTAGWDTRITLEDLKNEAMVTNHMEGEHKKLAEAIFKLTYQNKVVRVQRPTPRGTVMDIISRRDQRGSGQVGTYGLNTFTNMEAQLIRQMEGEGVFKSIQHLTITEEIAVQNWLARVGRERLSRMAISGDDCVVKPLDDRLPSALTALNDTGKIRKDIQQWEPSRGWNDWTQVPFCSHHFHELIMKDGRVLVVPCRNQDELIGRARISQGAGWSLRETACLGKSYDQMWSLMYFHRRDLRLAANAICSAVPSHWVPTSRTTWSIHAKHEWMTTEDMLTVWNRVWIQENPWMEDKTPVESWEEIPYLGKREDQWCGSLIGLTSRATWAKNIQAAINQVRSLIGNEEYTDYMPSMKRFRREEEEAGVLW

[3] = target: T1, High affinity choline transporter 1; assay: CHT inhibitors, dose response, cell-based, 5-point CRC, membrane potential dye (AID 504840)
[4] = target: Melanin-concentrating hormone receptor 1 (Homo sapiens, UniProt Q99705); assay: Late-stage fluorescence-based counterscreen for antagonists of the G-protein coupled receptor 7 (GPR7): cell-based dose response assay to identify antagonists of the melanin-concentrating hormone receptor 1 (MCHR1) Set 6.
Sequence of Melanin-concentrating hormone receptor 1 (Q99705 whole entry): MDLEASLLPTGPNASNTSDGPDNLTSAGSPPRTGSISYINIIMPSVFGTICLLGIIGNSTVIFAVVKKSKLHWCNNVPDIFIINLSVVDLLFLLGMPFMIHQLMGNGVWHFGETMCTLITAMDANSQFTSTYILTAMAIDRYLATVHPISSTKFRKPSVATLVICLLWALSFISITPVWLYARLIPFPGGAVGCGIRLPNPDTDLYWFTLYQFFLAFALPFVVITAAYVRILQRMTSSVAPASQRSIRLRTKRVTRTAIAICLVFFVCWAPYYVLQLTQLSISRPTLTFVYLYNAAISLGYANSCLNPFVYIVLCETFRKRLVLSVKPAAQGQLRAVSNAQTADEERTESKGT

[5] = target: T2, Neuropeptides B/W receptor type 1 (Homo sapiens, UniProt P48145); assay: GPR7 antagonist potency, late-stage follow-up, cell-based, fluorescence, dose response, set 6 (AID 588583)
T2 sequence (P48145 whole entry): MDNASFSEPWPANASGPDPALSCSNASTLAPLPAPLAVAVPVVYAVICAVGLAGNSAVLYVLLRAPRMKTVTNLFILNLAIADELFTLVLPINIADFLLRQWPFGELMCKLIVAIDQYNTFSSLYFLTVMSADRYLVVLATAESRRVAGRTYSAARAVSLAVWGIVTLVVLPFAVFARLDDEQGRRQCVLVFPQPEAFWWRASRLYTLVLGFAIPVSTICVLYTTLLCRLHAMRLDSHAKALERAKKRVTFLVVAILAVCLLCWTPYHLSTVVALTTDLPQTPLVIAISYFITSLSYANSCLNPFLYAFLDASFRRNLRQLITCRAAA
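For AC50 in this document: cells exposed to compound for roughly 70 hours or longer before luminescence read.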

Row | IC50 [4] | IC50 [5] | SMILES | CC50 (Vero) | AC50 [1] | IC50 [2] | IC50 (Genome polyprotein) | IC50 [3]
1 | – | – | COc1ccc(C)cc1NC(=O)c1ccccc1NS(=O)(=O)c1ccc(Cl)s1 | 22.6 µM (active) | 5.21 µM (active) | 1.75 µM (active) | 49.3 µM (active) | 5.82 µM (active)
2 | 0.173 µM (active) | 0.173 µM (active) | N#CC(c1cccc(F)c1)c1c(Cl)cnn(Cc2cccc3ccccc23)c1=O (configuration not stated) | – | – | – | – | –
